US11866704B2, “Nucleic acid molecules and uses thereof” (Macau University of Science and Technology, priority 2020, dated 2024)
[s4U] = 4-thiouridine base; m = 2'-O-methyl; r = 2'-OH (RNA)

What was measured:
[1] = tested on: HCT-8/5-FU (5-FU-resistant strain of HCT-8); assay: MTT cytotoxicity assay on HCT-8/5-FU cells; assay type: cell-based, human; conditions: for effect on growth and proliferation (FIGS. 7A, 7B): 6.25-100 nM; for IC50: MTT, 48 h treatment
Method: (§1) HCT-8, fluorouracil-resistant HCT-8, fluorouracil-resistant LoVo cell lines were cultured in RPMI Medium 1640 medium containing 10% FBS and 1% penicillin/streptomycin. LoVo cell line was cultured in F-12K medium containing 10% FBS and 1% penicillin/streptomycin. All cell lines above were cultured at humidified atmosphere containing 5% CO2 at 37° C.
(§2) In the cytotoxicity assay, exponentially growing cells of each cancer cell line were plated in 96-well microplate at a density of 5000 cells per well in 100 μL of culture medium and allowed to adhere for 24 h before treatment. Serial concentrations of RNA molecules obtained in Example 1 to 4 in a mixture containing a gene delivery carrier, i.e. Lipofectamine™ RNAiMAX Transfection Reagent (Thermo Fisher Scientific, U.S.A.) were then added to the cells. After treated for 48 h, MTT solution (50 μL per well, 1 mg/mL solution) was added to each well and incubated for 4 h at 37° C. Subsequently, 200 μL dimethyl sulfoxide (DMSO) were added and the optical densities of the resulting solutions were calorimetrically determined at 570 nm using a SpectraMax 190 microplate reader (Molecular Devices, Sunnyvale, CA, U.S.A). Dose-response curves were obtained, and the IC50 values were calculated by GraphPad Prism 5 (GraphPad, La Jolla, CA, USA). Each experiment was carried out for three times. IC50 results were expressed as means±standard deviation.

[2] = tested on: LoVo colorectal adenocarcinoma cell line; assay: MTT cytotoxicity assay on LoVo cells; assay type: cell-based; conditions: for effect on growth and proliferation (FIGS. 7A, 7B): 6.25-100 nM; for IC50: MTT, 48 h treatment
Method: as §1, §2

[3] = tested on: LoVo/5-FU (5-FU-resistant strain of LoVo); assay: MTT cytotoxicity assay on LoVo/5-FU cells; assay type: cell-based; conditions: for effect on growth and proliferation (FIGS. 7A, 7B): 6.25-100 nM; for IC50: MTT, 48 h treatment
Method: as §1, §2

HCT-8 cells [4] = assay: Wound-healing assay on HCT-8 cells; assay type: cell-based, human; conditions: 50 nM; for wound area, inhibition of migration (FIG. 9A): vs control group
Method: as §1
(§3) In the wound-healing assay, HCT-8 or LoVo cells were plated in 6-well microplate at a density of 500,000 cells per well in 2 mL of culture medium and allowed to adhere for 24 h before treatment. […] A 1 mL bacteria-free pipette tip was used to make a cross-scratch at the bottom of 6-well microplate. The cells in the scratch were washed away using phosphor buffer solution and the 6-well microplate was photographed under a microscope. Single concentration of RNA molecules obtained in Example 1 to 4 in a mixture containing a gene delivery carrier, i.e. Lipofectamine™ RNAiMAX Transfection Reagent (Thermo Fisher Scientific, U.S.A.) were then added to the cells. The cells were then photographed under microscope at 24 and 48 h. ImageJ software was applied to quantify the area of wound created. Each experiment was carried out for three times. Results were expressed as means±standard deviation.

LoVo cells [5] = assay: Wound-healing assay on LoVo cells; assay type: cell-based; conditions: 25 nM; for wound area, inhibition of migration (FIG. 9B): vs control group
Method: as §1, §3

HCT-8 cells [6] = assay: Clonogenic assay on HCT-8 cells; assay type: cell-based, human; conditions: 50 nM; for colony number, inhibition of proliferation (FIG. 8A): vs control group
Method: as §1
(§4) In the clonogenic assay, HCT-8 or LoVo cells were plated in 6-well microplate at a density of 1000 cells per well in 2 mL of culture medium and allowed to adhere for 24 h before treatment. Single concentration of RNA molecules obtained in Example 1 to 4 in a mixture containing a gene delivery carrier, i.e. Lipofectamine™ RNAiMAX Transfection Reagent (Thermo Fisher Scientific, U.S.A.) were then added to the cells. After treated for 48 h, discarded the drug solutions and replaced with 2 mL of fresh culture medium. After culture 14 days, discarded the culture medium and the cells were fixated with 4% paraformaldehyde fix solution for 20 min, followed by stained with crystal violet for 10 min and then washed by deionized water. The 6-well microplate was photographed and the number of colonies with more than 50 individual cells were counted using ImageJ software (U.S.A.). Each experiment was carried out for three times. Results were expressed as means±standard deviation.

[7] = tested on: HCT-8 human ileocecal colorectal adenocarcinoma cell line; assay: MTT cytotoxicity assay on HCT-8 cells; assay type: cell-based; conditions: for effect on growth and proliferation (FIGS. 7A, 7B) / IC50: HCT-8; for effect on growth and proliferation (FIGS. 7A, 7B): 6.25-100 nM; for IC50: MTT, 48 h treatment
Method: as §1, §2

LoVo cells [8] = assay: Clonogenic assay on LoVo cells; assay type: cell-based; conditions: 25 nM; for colony number, inhibition of proliferation (FIG. 8B): vs control group
Method: as §1, §4

[9] = among EC83 mimic and modified mimics

Row | Substance | effect on growth and proliferation (FIGS. 7A, 7B) [1] | IC50 [1] | effect on growth and proliferation (FIGS. 7A, 7B) [2] | IC50 [2] | effect on growth and proliferation (FIGS. 7A, 7B) [3] | IC50 [3] | wound area, inhibition of migration (FIG. 9A) (HCT-8 cells [4]) | wound area, inhibition of migration (FIG. 9B) (LoVo cells [5]) | colony number, inhibition of proliferation (FIG. 8A) (HCT-8 cells [6]) | effect on growth and proliferation (FIGS. 7A, 7B) [7] | IC50 [7] | cytotoxicity ranking on HCT-8 cells (FIG. 6C) ([7]; among synthetic RNA molecules of Example 4) | colony number, inhibition of proliferation (FIG. 8B) (LoVo cells [8]) | wound healing inhibition ranking (FIG. 9A) (HCT-8 cells [4]; [9]) | wound healing inhibition ranking (FIG. 9B) (LoVo cells [5]; [9]) | anti-proliferation activity ranking (FIG. 8A) (HCT-8 cells [6]; [9]) | anti-proliferation activity ranking (FIG. 8B) (LoVo cells [8]; [9])
1 | EC83 mimic: 22 bp dsRNA; antisense SEQ ID NO: 89 GCCGAAGUGGCGAAAUCGGUAG, sense SEQ ID NO: 183 CUACCGAUUUCGCCACUUCGGC; 5′-t of tRNA-Leu(CAA) (RNA, backbone not given here; tRNA-derived fragment mimic duplex) [22 bp dsRNA; 5′-t of tRNA-Leu(CAA)] | dose-dependent effect on inhibiting the growth and proliferation | 0.0634 µM | dose-dependent effect on inhibiting the growth and proliferation | 0.0288 µM | dose-dependent effect on inhibiting the growth and proliferation | 0.0295 µM | significantly inhibit the migration | significantly inhibit the migration | significantly inhibit the proliferation | dose-dependent effect on inhibiting the growth and proliferation | 0.0706 µM | strongest cytotoxicity | significantly inhibit the proliferation |  |  |  | 
2 | EC83-M1 mimic: modified EC83 dsRNA; antisense SEQ ID NO: 1 GCCGAAG[s^4U]GGCGAAAUCGGUAG, sense SEQ ID NO: 4 CUACCGAUUUCGCCACUUCGGC (antisense GCCGAAGUGGCGAAAUCGGUAG; antisense: RNA, [s4U] at 8, backbone not given here; sense: RNA, backbone not given here; tRNA-derived fragment mimic duplex) | dose-dependent effect on inhibiting the growth and proliferation | 0.0696 µM | dose-dependent effect on inhibiting the growth and proliferation | 0.0436 µM | dose-dependent effect on inhibiting the growth and proliferation | 0.0542 µM | significantly inhibit the migration | significantly inhibit the migration | significantly inhibit the proliferation | dose-dependent effect on inhibiting the growth and proliferation | 0.0779 µM |  | significantly inhibit the proliferation |  |  |  | 
3 | EC83-M2 mimic: modified EC83 dsRNA; antisense SEQ ID NO: 2 GCCGAAGUGGCGAAAUC[Gm]GUAG, sense SEQ ID NO: 5 CUACCGAUUUCGCCACUUCGGC (antisense GCCGAAGUGGCGAAAUCGGUAG; antisense: sugars from the 5' end r17 m1 r4, backbone not given here; sense: RNA, backbone not given here; tRNA-derived fragment mimic duplex) | dose-dependent effect on inhibiting the growth and proliferation | 0.0488 µM | dose-dependent effect on inhibiting the growth and proliferation | 0.0199 µM | dose-dependent effect on inhibiting the growth and proliferation | 0.0183 µM | significantly inhibit the migration | significantly inhibit the migration | significantly inhibit the proliferation | dose-dependent effect on inhibiting the growth and proliferation | 0.0589 µM |  | significantly inhibit the proliferation | strongest inhibition effect on the wound healing | strongest inhibition effect on the wound healing | strongest anti-proliferation activity | strongest anti-proliferation activity
4 | EC83-M3 mimic: modified EC83 dsRNA; antisense SEQ ID NO: 3 GCCGAAG[s^4U]GGCGAAAUC[Gm]GUAG, sense SEQ ID NO: 6 CUACCGAUUUCGCCACUUCGGC (antisense GCCGAAGUGGCGAAAUCGGUAG; antisense: sugars from the 5' end r17 m1 r4, [s4U] at 8, backbone not given here; sense: RNA, backbone not given here; tRNA-derived fragment mimic duplex) | dose-dependent effect on inhibiting the growth and proliferation | 0.0722 µM | dose-dependent effect on inhibiting the growth and proliferation | 0.0241 µM | dose-dependent effect on inhibiting the growth and proliferation | 0.023 µM | significantly inhibit the migration | significantly inhibit the migration | significantly inhibit the proliferation | dose-dependent effect on inhibiting the growth and proliferation | 0.0745 µM |  | significantly inhibit the proliferation |  |  |  | 
